In patent US20250241901A1, “ACTIVATION OF MNRR1 / CHCHD2 AS A THERAPEUTIC TARGET FOR MITOCHONDRIA ASSOCIATED DISORDERS” (Wayne State University, priority 2024, published 2025):

Assays:
[1] = Clinical use of nitazoxanide in adult humans; format: in vivo, human; conditions: 500 mg (per adult) twice a day
[2] = in cells; cited from earlier work
MELAS cybrid cells = assay: Oxygen consumption of MELAS cybrid cells (Seahorse); format: cell-based, human; conditions: 10 μM, 48 h
Experimental: FIGS. 7A-7E: MNRR1 activation by tizoxanide enhances mtDNA biogenesis and mitophagy to shift heteroplasmy in MELAS cells. FIG. 7A: Oxygen consumption measured from MELAS cybrid cells treated with vehicle (DMSO) or tizoxanide (10 μM) for 48 h (n=4 biological replicates, error bars represent SE). FIG. 7B: Haelll restriction enzyme digestion of a PCR-amplified fragment of mtDNA harboring the m.3243A>G mutation from DW7 cells treated with vehicle (DMSO) or tizoxanide (10 μM) for 144 h. […] FIG. 7C: Genes identified using qPCR of MELAS cybrid cells stably overexpressing EV or MNRR1. FIG. 7D: MtDNA levels are shown relative to nuclear DNA (nDNA) (GAPDH) (n=5 biological replicates, error bars represent SE). […]
FIGS. 11A-11F: RBPJk and HIF2α compete for binding at the ORE in the MNRR1 promoter to regulate transcription. […] FIG. 11E: Oxygen consumption measured from Control or HIFα knockdown (KD) MELAS cybrid cells. […] FIG. 11F: Left, Oxygen consumption measured from MELAS cybrid cells treated with vehicle (DMSO) or PT2385 (10 μM), an inhibitor of HIF2α function, for 24 h. […]
(§1) Intact cellular oxygen consumption and measurement of ATP: Cellular oxygen consumption was measured with a Seahorse XFe24 Bioanalyzer (Agilent). Cells were plated at a concentration of 3.5×10^4 per well a day prior to treatment and basal oxygen consumption was measured 48 h after treatments, as described. […]

[3] = tested on: MELAS patient fibroblasts; assay: Mitophagy and mitochondrial biogenesis markers in MELAS patient fibroblasts (immunoblot); format: cell-based, human; conditions: fibroblasts from three MELAS patients, 10 μM, 48 h
Experimental: FIGS. 8A-8D: MNRR1 activation using tizoxanide enhances mitochondrial function, mitophagy, and protects from LPS-induced inflammation in MELAS patient fibroblasts. FIG. 8A: Equal amounts of lysates from MELAS patient fibroblast (MF 1, 2, or 3) lysates treated with vehicle (DMSO) or tizoxanide (10 μM) for 48 h were separated on an SDS-PAGE gel and probed for LC3B, PGC1a, MNRR1, MTCO2, TOM20, and phospho-ubiquitin (S65) levels. GAPDH orTubulin was probed as a loading control. FIG. 8B: Oxygen consumption measured from MELAS patient fibroblasts treated with vehicle (DMSO) or tizoxanide (10 μM) for 48 h (n=4 biological replicates, mean±SE). FIG. 8C: Mitochondrial ATP rate measured in MELAS patient fibroblasts treated with vehicle (DMSO) or tizoxanide (10 μM) for 48 h (n=4 biological replicates, mean±SE). […]
Immunoblotting: Immunoblotting was performed as described previously. […] The clear supernatants were transferred to new tubes and quantified using the Bradford reagent with BSA as standard (BioRad, Hercules. CA). […] For detection after immunoblotting, the SuperSignal™ West Pico PLUS substrate (ThermoFisher, Waltham, MA) was used to generate chemiluminescence signal, which was detected with X-Ray film (RadTech, Vassar, MI).

[4] = tested on: MELAS patient fibroblasts; assay: Oxygen consumption and mitochondrial ATP rate in MELAS patient fibroblasts; format: cell-based, human; conditions: 10 μM, 48 h
Experimental: FIGS. 8A-8D: MNRR1 activation using tizoxanide enhances mitochondrial function, mitophagy, and protects from LPS-induced inflammation in MELAS patient fibroblasts. FIG. 8A: Equal amounts of lysates from MELAS patient fibroblast (MF 1, 2, or 3) lysates treated with vehicle (DMSO) or tizoxanide (10 μM) for 48 h were separated on an SDS-PAGE gel and probed for LC3B, PGC1a, MNRR1, MTCO2, TOM20, and phospho-ubiquitin (S65) levels. GAPDH orTubulin was probed as a loading control. FIG. 8B: Oxygen consumption measured from MELAS patient fibroblasts treated with vehicle (DMSO) or tizoxanide (10 μM) for 48 h (n=4 biological replicates, mean±SE). FIG. 8C: Mitochondrial ATP rate measured in MELAS patient fibroblasts treated with vehicle (DMSO) or tizoxanide (10 μM) for 48 h (n=4 biological replicates, mean±SE). FIG. 8D: Heatmap representation of ROS and TNFα transcript levels from MELAS patient fibroblasts treated with vehicle (DMSO), LPS (DMSO+500 ng/mL LPS), or LPS plus tizoxanide (10 μM tizoxanide+500 ng/mL LPS) for 24 h (n=4 biological replicates). […]
as §1

| Compound | drug concentration in the blood [1] | fraction metabolized to tizoxanide [2] [%] | oxygen consumption (MELAS cybrid cells) | mitochondrial biogenesis (PGC1α, MTCO2, TOM20 levels) [3] | mitophagy (LCB and pSer-65 ubiquitin levels) [3] | OCR [4] | mitochondrial ATP levels [4] |
| --- | --- | --- | --- | --- | --- | --- | --- |
| CC(=O)Oc1ccccc1C(=O)Nc1ncc([N+](=O)[O-])s1 [nitazoxanide, Nitazoxanide] | around 600 micromolar | > 97 | – | – | – | – | – |
| O=C(Nc1ncc([N+](=O)[O-])s1)c1ccccc1O [tizoxanide, Tizoxanide] | – | – | increased | enhances | enhances | enhanced | enhanced |
